This is an account of results in patent publication US10682339B2, “Pharmaceutical compositions directly targeting FKBP52 for the treatment of prostate cancer and methods of using same” (THE BOARD OF REGENTS OF THE UNIVERSITY OF TEXAS SYSTEM, priority 2014, dated 2020).

In one experiment the test system is GR. The experiment is described as follows: GR-mediated luciferase reporter assay in MDA-kb2 cells. Format: cell-based. As to the method: (§1) FIG. 3. The FKBP52-specific inhibitor GMC1 inhibits AR and GR activity. (A) Representative AR- and GR-mediated luciferase reporter assays in MDA-kb2 cells with a range of GMC1 concentrations. The average IC50 from 4 independent experiments are shown. (B) A representative luciferase reporter assay in 52KO mouse embryonic fibroblast cells in the presence or absence of FKBP52 were performed. Transfected cells were treated with DHT and a range of concentrations of GMC1 and assessed for AR-dependent expression of a luciferase reporter. The average IC50 of 3 independent assays is shown. (C-D) ELISA assays measuring androgen-dependent PSA secretion form LNCaP (C) and 22Rv1 (D) prostate cancer cells treated with the indicated concentrations of GMC1.
(In a reporter assay the amount or activity of a reporter protein is the signal.)

The test system of experiment [1] is LNCaP prostate cancer cells. Put plainly: ELISA of androgen-dependent PSA secretion from LNCaP cells. Format: cell-based. Particulars: preliminary. Here is the method: as §1
For experiment [2], the system named is FKBP52-regulated AR activity. The experiment is described as follows: AR-dependent luciferase reporter assay in 52KO mouse embryonic fibroblast cells with or without FKBP52. Particulars: 52KO MEF cells, DHT treated. Type of experiment: cell-based. Here is the method:
as §1

Experiment [3] deals with 22Rv1 prostate cancer cells. The experiment is described as follows: qPCR of endogenous PSA gene expression in 22Rv1 cells. Type of experiment: cell-based. The settings on record: absence of hormone. The text has this:
(§2) FIG. 4. GMC1 inhibits hormone-dependent and +independent PSA secretion and hormone dependent proliferation in 22Rv1 prostate cancer cells. (A) ELISA assay in 22Rv1 cells measuring GMC1 effects on PSA secretion in the presence and absence of hormone. (B) qPCR assay in 22Rv1 cells measuring endogenous PSA gene expression in the presence or absence of hormone. For comparison, GMC1, but not MJC13, inhibits hormone-independent PSA secretion and/or expression. (C) A BrdU incorporation assay was used to assess GMC1 effects on hormone-dependent 22Rv1 cell proliferation.
On the technique in general: Real-time PCR tracks product formation cycle by cycle.

Experiment [4] concerns 22Rv1 prostate cancer cells. Put plainly: ELISA of PSA secretion from 22Rv1 cells in the presence and absence of hormone. The settings on record: for inhibition of hormone-independent PSA secretion (ELISA): absence of hormone. Format: cell-based. Here is the method: as §1, §2
On the technique in general: An ELISA detects its analyte on a solid surface through an enzyme-linked reagent.

Experiment [5] deals with 22Rv1 prostate cancer cells. The experiment is described as follows: BrdU incorporation assay of hormone-dependent 22Rv1 cell proliferation. Type of experiment: cell-based. The settings on record: 22Rv1 cells.
From the text: as §2

The next experiment relates to AR. Put plainly: AR-mediated luciferase reporter assay in MDA-kb2 cells. Type of experiment: cell-based. The settings on record: among 40 hits from the virtual screen. As to the method: as §1
The target in experiment [6] is T1, β-catenin interaction with AR (Homo sapiens, UniProt P10275).
T1 sequence (P10275 1-920): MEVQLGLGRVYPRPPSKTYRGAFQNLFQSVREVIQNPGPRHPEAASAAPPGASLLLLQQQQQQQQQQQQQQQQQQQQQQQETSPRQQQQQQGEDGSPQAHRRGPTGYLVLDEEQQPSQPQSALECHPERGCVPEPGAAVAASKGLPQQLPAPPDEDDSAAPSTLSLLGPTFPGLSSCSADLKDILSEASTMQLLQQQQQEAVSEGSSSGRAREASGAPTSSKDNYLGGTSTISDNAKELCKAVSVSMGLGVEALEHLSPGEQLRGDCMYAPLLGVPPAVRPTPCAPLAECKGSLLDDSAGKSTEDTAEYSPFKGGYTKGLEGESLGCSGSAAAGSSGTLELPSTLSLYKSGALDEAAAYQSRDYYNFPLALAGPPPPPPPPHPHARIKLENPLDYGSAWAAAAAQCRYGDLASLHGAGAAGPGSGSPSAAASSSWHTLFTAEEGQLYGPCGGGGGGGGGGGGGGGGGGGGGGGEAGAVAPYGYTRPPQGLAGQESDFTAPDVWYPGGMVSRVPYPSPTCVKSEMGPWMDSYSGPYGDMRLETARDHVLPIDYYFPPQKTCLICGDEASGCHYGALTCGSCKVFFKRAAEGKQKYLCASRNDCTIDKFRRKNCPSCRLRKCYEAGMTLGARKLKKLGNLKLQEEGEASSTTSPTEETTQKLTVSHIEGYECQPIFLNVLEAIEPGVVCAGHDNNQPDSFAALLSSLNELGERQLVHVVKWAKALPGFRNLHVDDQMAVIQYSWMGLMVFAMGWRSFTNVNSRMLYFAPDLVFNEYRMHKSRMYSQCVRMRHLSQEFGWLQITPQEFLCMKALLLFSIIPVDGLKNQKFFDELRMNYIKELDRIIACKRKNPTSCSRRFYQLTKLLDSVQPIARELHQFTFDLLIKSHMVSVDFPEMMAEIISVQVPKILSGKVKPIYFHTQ
The experiment is described as follows: β-catenin interaction with AR. The settings on record: targeting to the AR BF3 surface. The source says: MJC13 is described as an inhibitor of FKBP52-regulated AR activity (De Leon et. al. 2011. PNAS. 108 (29): 11878-83) by targeting the AR BF3 surface. A novel mechanism is disclosed by which FKBP52 and β-catenin interact to co-regulate AR activity in prostate cancer cells. […] Specific small molecules docked within the PPIase pocket affect proline-rich loop conformation and interactions. […] Thus, small molecules predicted to target the FKBP52 PPIase pocket have been identified in the disclosed embodiments.

For experiment [7], the system named is human prostate cancer cell lines. Particulars: cited from earlier work.
For experiment [8], the system named is prostate cancer xenograft. The settings on record: prostate cancer xenograft model; preliminary preclinical studies; cited from earlier work.
Setting [9] is: variety of human prostate cancer cell lines.

Turning to `COc1ccc(/C=N/NC(=O)CSc2nc3ccccc3[nH]2)cc1` [GMC1, 2-(1H-benzimidizol-2-ylsulfanyl)-N—[(Z)-(4methoxyphenyl)methylideneamino]acetamide], in the experiment on GR, the “inhibition of FKBP52-regulated GR activity (effective concentration range)” value was “high nanomolar range”. Besides, the “inhibition of AR-dependent PSA expression (ELISA)” value in experiment [1] is reported as “inhibits”. The “inhibition of FKBP52-regulated AR activity (effective concentration range)” value in experiment [2] was “high nanomolar range”. Further, in [3], the “inhibition of hormone-independent PSA gene expression (qPCR)” value is recorded as “inhibits”. For the same molecule, in [4], the “inhibition of hormone-independent PSA secretion (ELISA)” value is given as “inhibits”. Moreover, in experiment [4] (with hormone), the “inhibition of AR-dependent (hormone-dependent) PSA expression/secretion (ELISA)” value is given as “inhibits”. Besides, the “inhibition of hormone dependent proliferation (BrdU incorporation)” value in [5] is “inhibits”. Further, the “inhibition of AR-mediated reporter gene expression” value in the experiment with AR is on record as “most potent inhibition”.

On to `O=C(Nc1cccc(Cl)c1Cl)C1CCCCC1` [MJC13], for which the “inhibition of hormone-independent PSA gene expression (qPCR)” value in experiment [3] is “not”. Also, in experiment [6], the “effect on β-catenin interaction with AR” value was “abrogates”. In addition, the “inhibition of hormone-independent PSA secretion (ELISA)” value in experiment [4] is “not”. The “effective drug concentrations (AR BF3 surface targeting)” value in experiment [7] was “low micromolar range”. Further, in [7] (setting [9]), the “block of AR signaling” value is given as “effectively block” and the “block of AR-dependent cancer cell proliferation” value is “effectively block”. Also, the “effects on tumor growth” value in [8] is given as “impressive effects on tumor growth”.
